Source: patent publication US20260256814A1, “COMBINATION FOR THE TREATMENT OF INFECTIONS CAUSED BY MYCOPLASMA GENITALIUM” (GLAXOSMITHKLINE INTELLECTUAL PROPERTY DEVELOPMENT LIMITED, priority 2019, published 2026)
In brackets after ≈: the same amount, converted by molar mass. Read-outs that look alike come from different tables or passages of the source.

Key:
Mycoplasma genitalium [1] = details: alternative treatment of Mycoplasma genitalium infection; cited from earlier work
Mycoplasma genitalium [2] = assay: Determination of minimum inhibitory concentration (MIC) by the Vero-cell culture method, growth by qPCR; format: cell-based
Procedure: A collection of 54 Mycoplasma genitalium isolates originating from 51 patients were tested. Thirty-one strains were macrolide-resistant, with azithromycin MICs of ≥16 μg/mL and mutations in 23S rRNA gene positions A2058 (n=17) or A2059 (n=14, E. coli numbering). Eighteen strains were moxifloxacin-resistant (MIC≥1 μg/ml); 17 had dual resistance and were resistant to both moxifloxacin and azithromycin.
Gepotidacin minimal inhibitory concentrations (MICs) were determined by the Vero-cell culture method for all 54 isolates and minimal bactericidal concentrations (MBCs) against 44 Mycoplasma genitalium strains. Gepotidacin, azithromycin, doxycycline, and moxifloxacin MICs were determined by inoculating 5000 genome equivalents (geq) as determined by quantitative PCR (qPCR) into a Vero-cell culture containing two-fold dilutions of test-antibiotic (Hamasuna et al., Antimicrob. Agents Chemother 49, 4993-4998 (2005)). After a three-week incubation period, cells and supernatant were harvested and growth of Mycoplasma genitalium was determined by qPCR. MIC was defined as the minimal concentration of the test-antibiotic causing a 99% inhibition of growth when compared to the mean of the control cultures grown without antibiotic.

Mycoplasma genitalium [3] = assay: Determination of minimum bactericidal concentration (MBC), Vero-cell culture, qPCR; format: cell-based; details: Mycoplasmoides genitalium, read-out: median MBC
Procedure: After incubation for MIC determination, 15 μl of culture medium was transferred from the MIC plate to 135 μl fresh Vero-cell suspension, resulting in a 10-fold dilution of gepotidacin. Plates were sealed and incubated for four weeks and Mycoplasma genitalium growth was subsequently determined by qPCR. MBC was defined as the minimal concentration of the test-antibiotic causing a 99% inhibition of growth when compared to the mean of the control culture wells grown without antibiotic.

[4] = Mycoplasmoides genitalium, all 54 isolates (36 moxifloxacin-susceptible and 18 moxifloxacin-resistant), Vero-cell culture, 99% inhibition of growth, read-out: MIC50
[5] = Mycoplasmoides genitalium, all 54 isolates, Vero-cell culture, read-out: MIC90
[6] = all 54 isolates, Vero-cell culture
[7] = 18 moxifloxacin-resistant isolates
[8] = 36 moxifloxacin-susceptible isolates

## pristinamycin
Mycoplasma genitalium [1]
  effective: 80%

## CC[C@H]1OC(=O)[C@H](C)[C@@H](O[C@H]2C[C@@](C)(OC)[C@@H](O)[C@H](C)O2)[C@H](C)[C@@H](O[C@@H]2O[C@H](C)C[C@H](N(C)C)[C@H]2O)[C@](C)(O)C[C@@H](C)CN(C)[C@H](C)[C@@H](O)[C@]1(C)O [Azithromycin, reference compound]
Mycoplasma genitalium [2]; Mycoplasmoides genitalium, read-out: MICs, 31 macrolide-resistant strains (23S rRNA A2058 or A2059 mutations)
  MIC: ≥ 16 µg/mL
Mycoplasma genitalium [2]; [4]
  MIC50: 16 µg/mL (≈ 21.4 µM)
Mycoplasma genitalium [2]; [5]
  MIC90: > 64 µg/mL
Mycoplasma genitalium [2]; [6]
  MIC90: >64 µg/mL

## COc1c(N2C[C@@H]3CCCN[C@@H]3C2)c(F)cc2c(=O)c(C(=O)O)cn(C3CC3)c12 [Moxifloxacin, reference compound]
Mycoplasma genitalium [2]; Mycoplasmoides genitalium
  MIC: ≥ 1 µg/mL
  MIC50: 0.25 µg/mL (≈ 0.623 µM)
  MIC90: 4 µg/mL (≈ 9.96 µM)
Mycoplasma genitalium [2]; [6]
  MIC90: 4 µg/mL (≈ 9.96 µM)

## O=c1ccc2ncc(=O)n3c2n1C[C@H]3CN1CCC(NCc2cc3c(cn2)OCCC3)CC1 [Gepotidacin, (2R)-2-({4-[(3,4-dihydro-2/pyrano[2,3-c]pyridin-6-ylmethyl)amino]-1-piperidinyl}methyl)-1,2-dihydro-3H,8/2a,5,8a-triazaacenaphthylene-3,8-dione]
Mycoplasma genitalium [2]; [7]
  MIC90: 0.25 µg/mL (≈ 0.557 µM)
  MIC range: ≤0.016 to 0.5 µg/mL
Mycoplasma genitalium [2]; [8]
  MIC90: 0.25 µg/mL (≈ 0.557 µM)
  MIC range: 0.032 to 0.5 µg/mL
Mycoplasma genitalium [2]; 44 isolates for which MBCs were available
  median MIC: 0.064 µg/mL
Mycoplasma genitalium [2]; 54 isolates, p=0.2
  difference in MIC between fluoroquinolone-, dual-resistant and -susceptible isolates: no difference
Mycoplasma genitalium [2]; 54 isolates, p=0.24
  difference in MIC between macrolide-resistant and -susceptible isolates: no difference
Mycoplasma genitalium [2]; Mycoplasmoides genitalium
  MIC90: 0.25 µg/mL (≈ 0.557 µM)
Mycoplasma genitalium [2]; Mycoplasmoides genitalium, 18 moxifloxacin-resistant isolates
  MIC50: 0.064 µg/mL (≈ 0.143 µM)
Mycoplasma genitalium [2]; Mycoplasmoides genitalium, 36 moxifloxacin-susceptible isolates
  MIC50: 0.125 µg/mL (≈ 0.279 µM)
Mycoplasma genitalium [2]; Mycoplasmoides genitalium, read-out: median MIC, 44 isolates for which MBCs were available
  MIC: 0.064 µg/mL (≈ 0.143 µM)
Mycoplasma genitalium [2]; Mycoplasmoides genitalium, read-out: median MIC, all 54 isolates
  MIC: 0.125 µg/mL (≈ 0.279 µM)
Mycoplasma genitalium [2]; Mycoplasmoides genitalium, read-out: modal MIC, all 54 isolates
  MIC: 0.125 µg/mL (≈ 0.279 µM)
Mycoplasma genitalium [2]; Mycoplasmoides genitalium, all 54 isolates (36 moxifloxacin-susceptible and 18 moxifloxacin-resistant), Vero-cell culture, 99% inhibition of growth
  MIC50: 0.125 µg/mL (≈ 0.279 µM)
Mycoplasma genitalium [2]; all 54 isolates
  MIC range: ≤0.016 to 0.5 µg/mL
Mycoplasma genitalium [2]; [6]
  MIC90: 0.25 µg/mL (≈ 0.557 µM)
  MIC range: ≤0.016 to 0.5 µg/mL
Mycoplasma genitalium [2]; all isolates incl. fluoroquinolone- and macrolide-resistant
  cross-resistance to the tested comparators: no cross-resistance
Mycoplasma genitalium [3]
  MBC: 0.125 µg/mL (≈ 0.279 µM)

## C[C@H]1c2cccc(O)c2C(=O)C2=C(O)[C@]3(O)C(=O)C(C(N)=O)=C(O)[C@@H](N(C)C)[C@@H]3[C@@H](O)[C@@H]21 [Doxycycline, reference compound]
Mycoplasma genitalium [2]; [4]
  MIC50: 0.5 µg/mL (≈ 1.13 µM)
Mycoplasma genitalium [2]; [5]
  MIC90: 1 µg/mL (≈ 2.25 µM)
Mycoplasma genitalium [2]; [6]
  MIC range: 0.06 to 2 µg/mL
